The values that follow come from ChEMBL document CHEMBL1139129, “Bis-styrylpyridine and bis-styrylbenzene derivatives as inhibitors for Abeta fibril formation” (Bioorg Med Chem Lett, 2007).

A value given as a limit tells only on which side of the number the result lay.

In the first experiment the test system is HT-22. Nature of the experiment: Cytotoxicity against HT22 cells assessed as cell viability at 10 uM by MTT assay relative to control. Conditions: Mus musculus, read-out: Activity. The experiment is classed as functional, Homo sapiens. (In general: Formazan colour is commonly taken as a measure of viable cells.)
`COc1cc(/C=C/C(=O)CC(=O)/C=C/c2ccc(O)c(OC)c2)ccc1O` [CURCUMIN]: the viability at 10 µM stood at 116%.
On the same count and under the same terms, the same measure for `CNc1ccc(/C=C/c2cccc(/C=C/c3ccc(NC)c(OC)c3)c2)cc1OC` [listing 1 of 2 here]: 150%.

A further experiment deals with Amyloid-beta precursor protein (Homo sapiens, UniProt P05067). Nature of the experiment: Inhibition of amyloid beta 42 fibril formation by thioflavin T assay.
Amyloid-beta precursor protein, sequence (P05067 whole entry): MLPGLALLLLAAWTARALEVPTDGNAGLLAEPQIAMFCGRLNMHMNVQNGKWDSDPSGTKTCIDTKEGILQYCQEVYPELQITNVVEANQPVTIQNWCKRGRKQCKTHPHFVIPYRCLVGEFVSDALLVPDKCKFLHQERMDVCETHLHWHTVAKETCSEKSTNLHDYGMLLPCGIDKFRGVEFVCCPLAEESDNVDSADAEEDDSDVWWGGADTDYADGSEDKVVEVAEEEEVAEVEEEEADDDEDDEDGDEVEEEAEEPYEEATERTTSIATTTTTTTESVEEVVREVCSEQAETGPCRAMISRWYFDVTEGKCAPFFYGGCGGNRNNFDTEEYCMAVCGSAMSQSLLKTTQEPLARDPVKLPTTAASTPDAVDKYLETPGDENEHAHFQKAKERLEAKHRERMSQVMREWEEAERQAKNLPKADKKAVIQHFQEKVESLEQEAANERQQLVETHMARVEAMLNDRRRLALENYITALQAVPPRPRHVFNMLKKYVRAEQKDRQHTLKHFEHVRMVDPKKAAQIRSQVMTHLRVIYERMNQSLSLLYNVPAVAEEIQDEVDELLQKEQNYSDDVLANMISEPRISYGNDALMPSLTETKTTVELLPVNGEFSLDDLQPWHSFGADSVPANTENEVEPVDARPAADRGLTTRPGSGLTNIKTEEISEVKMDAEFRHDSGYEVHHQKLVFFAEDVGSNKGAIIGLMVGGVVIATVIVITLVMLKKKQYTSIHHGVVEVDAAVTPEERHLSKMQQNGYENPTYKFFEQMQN
Conditions: not given
What is called IC50 is the concentration at which inhibition is half-maximal. The low end stands for greater potency, the high end for weaker potency. `CN(C)c1ccc(/C=C/c2cccc(/C=C/c3ccc(N(C)C)c(O)c3)c2)cc1O` displayed an IC50 of 0.7 µM.
On the same count and under the same terms, with `COc1cc(/C=C/c2cc(Br)cc(/C=C/c3ccc(O)c(OC)c3)c2)ccc1O` the figure was 0.1 µM; with `COc1cc(/C=C/c2cc(Br)cc(/C=C/c3ccc(O)c(OC)c3)n2)ccc1O`, 1.1 µM; with `CNc1ccc(/C=C/c2cccc(/C=C/c3ccc(NC)c(OC)c3)c2)cc1OC` [listing 2 of 2 here], 0.6 µM.
As for `CN(C)c1ccc(/C=C/c2cccc(/C=C/c3ccc(N(C)C)c(O)c3)n2)cc1O`, 0.9 µM corresponded to half-maximal inhibition (IC50).
Same read-out and setting: with `COc1cc(/C=C/c2cccc(/C=C/c3ccc(N)c(OC)c3)n2)ccc1N` the figure was 0.7 µM; with `COc1cc(/C=C/c2cc(Cl)cc(/C=C/c3ccc(O)c(OC)c3)n2)ccc1O`, 1.1 µM.
As to `COc1ccc(/C=C/c2cccc(/C=C/c3ccc(OC)c(N(C)C)c3)n2)cc1N(C)C`, the IC50 amounted to 0.9 µM.
`COc1cc(/C=C/c2cccc(/C=C/c3ccc(N(C)C)c(OC)c3)n2)ccc1N(C)C` had an IC50 of 0.8 µM.
`COc1cc(/C=C/c2cc(Br)cc(/C=C/c3ccc(N)c(OC)c3)c2)ccc1N`: the IC50 came to 1.8 µM. This IC50 is about 2.2-fold higher than that of the compound before.
Same read-out and setting: the same measure for `COc1ccc(/C=C/c2cccc(/C=C/c3ccc(OC)c(N(C)C)c3)c2)cc1N(C)C`: 1.1 µM; for `COc1cc(/C=C/c2ccc(O)c(OC)c2)nc(/C=C/c2ccc(O)c(OC)c2)c1`: 1.7 µM.
`CNc1cc(/C=C/c2cccc(/C=C/c3ccc(OC)c(NC)c3)n2)ccc1OC`: the IC50 was found to be 1.1 µM.
`COc1ccc(/C=C/c2cccc(/C=C/c3ccc(OC)c(N)c3)n2)cc1N`: the IC50 worked out at 0.6 µM.
On the same count and under the same terms, with `CN(C)c1cc(/C=C/c2cccc(/C=C/c3ccc(O)c(N(C)C)c3)n2)ccc1O` the figure was 2.3 µM; with `COc1cc(/C=C/c2cccc(/C=C/c3ccc(N)c(OC)c3)c2)ccc1N`, 0.6 µM.
Compound `O=C(O)c1cc(/C=C/c2ccc(/C=C/c3ccc(O)c(C(=O)O)c3)c(I)c2)ccc1O` had an IC50 of 8 µM.
The same measure, in the same setting: the same measure for `CNc1cc(/C=C/c2cccc(/C=C/c3ccc(OC)c(NC)c3)c2)ccc1OC`: 1.3 µM; for `CN(C)c1ccc(/C=C/c2cc(Br)cc(/C=C/c3ccc(N(C)C)cc3)c2)cc1`: over 20 µM.
Still for that read-out and setting: the same measure for `COc1cc(/C=C/c2cc(N(C)C)cc(/C=C/c3ccc(O)c(OC)c3)n2)ccc1O`: 1.9 µM; for `CNc1ccc(/C=C/c2cccc(/C=C/c3ccc(NC)c(O)c3)n2)cc1O`: 0.9 µM; for `COc1cc(/C=C/c2cccc(/C=C/c3ccc(N(C)C)c(OC)c3)c2)ccc1N(C)C`: 1 µM.
`CNc1ccc(/C=C/c2cccc(/C=C/c3ccc(NC)c(OC)c3)n2)cc1OC` registered an IC50 of 0.5 µM.
The same measure, in the same setting: the same measure for `CNc1cc(/C=C/c2cccc(/C=C/c3ccc(O)c(NC)c3)n2)ccc1O`: 0.5 µM; for `COc1ccc(/C=C/c2cc(Br)cc(/C=C/c3ccc(OC)c(OC)c3)c2)cc1OC`: 20 µM.
In turn, `COc1cc(/C=C/c2cc(C)cc(/C=C/c3ccc(O)c(OC)c3)n2)ccc1O` showed an IC50 of 1.4 µM.
Still for that read-out and setting: the same measure for `CN(C)c1ccc(/C=C/c2cc(I)cc(/C=C/c3ccc(N(C)C)cc3)c2)cc1`: over 20 µM.
Same read-out and setting: with `CN(C)c1ccc2cc3ccc(N(C)C)cc3nc2c1` [ACRIDINE ORANGE] the figure was 0.6 µM; with `COc1cc(/C=C/c2cccc(/C=C/c3ccc(O)c(OC)c3)n2)ccc1O`, 0.8 µM.
Same read-out and setting: the same measure for `CN(C)c1cc(/C=C/c2cccc(/C=C/c3ccc(O)c(N(C)C)c3)c2)ccc1O`: 2.7 µM; for `COc1ccc(/C=C/c2cccc(/C=C/c3ccc(OC)c(N)c3)c2)cc1N`: 0.3 µM.
Consider `COc1cc(/C=C/c2cccc(/C=C/c3ccc(N4CCCC4)c(OC)c3)c2)ccc1N1CCCC1`, for which the IC50 is over 20 µM.
The same measure, in the same setting: with `COc1cc(/C=C/c2cc(Br)cc(/C=C/c3ccc(N)c(OC)c3)n2)ccc1N` the figure was 1.1 µM; with `CN(C)c1ccc(/C=C/c2cccc(/C=C/c3ccc(N(C)C)cc3)c2)cc1`, over 20 µM.
